Experimental data: the NIST ThermoML archive (doi:10.1021/je200616t)
± gives the expanded uncertainty stated by the source.

Test: xn = mol fraction of the nth substance listed
Conditions: 101 kPa, Liquid, MP522 conductivity instrument

CCCCCC[n+]1ccccc1.O=S(=O)([N-]S(=O)(=O)C(F)(F)F)C(F)(F)F [1-hexylpyridinium bis(trifluromethylsulfonyl)imide] + CC#N
electrical conductivity [S/m]
Conditions | 283.15 K | 293.15 K | 298.15 K | 303.15 K | 313.15 K
x1 = 0.0432 | 2.75 ± 0.06 | 3.05 ± 0.06 | 3.2 ± 0.06 | 3.35 ± 0.07 | 3.65 ± 0.07
x1 = 0.0703 | 2.91 ± 0.06 | 3.28 ± 0.07 | 3.46 ± 0.07 | 3.65 ± 0.07 | 4.01 ± 0.08
x1 = 0.0883 | 2.83 ± 0.06 | 3.22 ± 0.06 | 3.42 ± 0.07 | 3.61 ± 0.07 | 4 ± 0.08
x1 = 0.1355 | 2.37 ± 0.05 | 2.77 ± 0.06 | 2.98 ± 0.06 | 3.19 ± 0.06 | 3.61 ± 0.07
x1 = 0.2056 | 1.64 ± 0.033 | 2 ± 0.04 | 2.19 ± 0.04 | 2.39 ± 0.05 | 2.81 ± 0.06
x1 = 0.2534 | 1.27 ± 0.026 | 1.59 ± 0.032 | 1.77 ± 0.036 | 2 ± 0.04 | 2.38 ± 0.05
x1 = 0.332 | 0.886 ± 0.018 | 1.16 ± 0.023 | 1.3 ± 0.026 | 1.46 ± 0.029 | 1.79 ± 0.036
x1 = 0.4498 | 0.503 ± 0.01 | 0.702 ± 0.014 | 0.811 ± 0.016 | 0.935 ± 0.019 | 1.2 ± 0.024
x1 = 0.5297 | 0.351 ± 0.007 | 0.51 ± 0.01 | 0.599 ± 0.012 | 0.702 ± 0.014 | 0.924 ± 0.019
x1 = 0.6276 | 0.239 ± 0.005 | 0.362 ± 0.007 | 0.437 ± 0.009 | 0.518 ± 0.011 | 0.704 ± 0.014
x1 = 0.8155 | 0.128 ± 0.003 | 0.207 ± 0.004 | 0.256 ± 0.005 | 0.316 ± 0.006 | 0.452 ± 0.009
x1 = 0.9205 | 0.0936 ± 0.002 | 0.157 ± 0.003 | 0.197 ± 0.004 | 0.245 ± 0.005 | 0.358 ± 0.007
x1 = 1 | 0.0737 ± 0.0016 | 0.128 ± 0.003 | 0.163 ± 0.003 | 0.205 ± 0.004 | 0.306 ± 0.006

CCCC[n+]1ccccc1.O=S(=O)([N-]S(=O)(=O)C(F)(F)F)C(F)(F)F [1-butylpyridinium bis[(trifluoromethyl)sulfonyl]imide] + CC1COC(=O)O1
electrical conductivity [S/m]
Conditions | 283.15 K | 293.15 K | 298.15 K | 303.15 K | 313.15 K
x1 = 0.0282 | 0.356 ± 0.007 | 0.444 ± 0.009 | 0.489 ± 0.01 | 0.538 ± 0.011 | 0.635 ± 0.013
x1 = 0.0553 | 0.536 ± 0.011 | 0.672 ± 0.014 | 0.745 ± 0.015 | 0.821 ± 0.017 | 0.976 ± 0.02
x1 = 0.0934 | 0.66 ± 0.013 | 0.84 ± 0.017 | 0.933 ± 0.019 | 1.03 ± 0.021 | 1.24 ± 0.025
x1 = 0.1235 | 0.701 ± 0.014 | 0.896 ± 0.018 | 1 ± 0.02 | 1.12 ± 0.022 | 1.34 ± 0.027
x1 = 0.1897 | 0.686 ± 0.014 | 0.902 ± 0.018 | 1.02 ± 0.021 | 1.15 ± 0.023 | 1.4 ± 0.028
x1 = 0.269 | 0.607 ± 0.012 | 0.821 ± 0.017 | 0.938 ± 0.019 | 1.07 ± 0.022 | 1.34 ± 0.027
x1 = 0.3709 | 0.493 ± 0.01 | 0.692 ± 0.014 | 0.802 ± 0.016 | 0.927 ± 0.019 | 1.19 ± 0.024
x1 = 0.4666 | 0.4 ± 0.008 | 0.58 ± 0.012 | 0.681 ± 0.014 | 0.798 ± 0.016 | 1.04 ± 0.021
x1 = 0.5668 | 0.323 ± 0.007 | 0.483 ± 0.01 | 0.575 ± 0.012 | 0.679 ± 0.014 | 0.906 ± 0.018
x1 = 0.6944 | 0.248 ± 0.005 | 0.386 ± 0.008 | 0.467 ± 0.01 | 0.561 ± 0.011 | 0.764 ± 0.015
x1 = 0.7943 | 0.208 ± 0.004 | 0.33 ± 0.007 | 0.403 ± 0.008 | 0.489 ± 0.01 | 0.681 ± 0.014
x1 = 0.8591 | 0.188 ± 0.004 | 0.3 ± 0.006 | 0.367 ± 0.008 | 0.448 ± 0.009 | 0.628 ± 0.013
x1 = 0.9208 | 0.17 ± 0.004 | 0.275 ± 0.006 | 0.338 ± 0.007 | 0.415 ± 0.008 | 0.587 ± 0.012
x1 = 0.9715 | 0.157 ± 0.003 | 0.256 ± 0.005 | 0.317 ± 0.007 | 0.392 ± 0.008 | 0.556 ± 0.011
x1 = 1 | 0.15 ± 0.003 | 0.246 ± 0.005 | 0.307 ± 0.006 | 0.378 ± 0.008 | 0.54 ± 0.011

CCCC[n+]1ccccc1.O=S(=O)([N-]S(=O)(=O)C(F)(F)F)C(F)(F)F [1-butylpyridinium bis[(trifluoromethyl)sulfonyl]imide] + CC#N
electrical conductivity [S/m]
Conditions | 283.15 K | 293.15 K | 298.15 K | 303.15 K | 313.15 K
x1 = 0.0379 | 3.17 ± 0.06 | 3.52 ± 0.07 | 3.68 ± 0.07 | 3.85 ± 0.08 | 4.19 ± 0.08
x1 = 0.0652 | 3.38 ± 0.07 | 3.77 ± 0.08 | 3.96 ± 0.08 | 4.16 ± 0.08 | 4.55 ± 0.09
x1 = 0.1114 | 3.28 ± 0.07 | 3.72 ± 0.07 | 3.94 ± 0.08 | 4.18 ± 0.08 | 4.64 ± 0.09
x1 = 0.1566 | 2.84 ± 0.06 | 3.3 ± 0.07 | 3.54 ± 0.07 | 3.78 ± 0.08 | 4.26 ± 0.09
x1 = 0.217 | 2.22 ± 0.04 | 2.67 ± 0.05 | 2.89 ± 0.06 | 3.13 ± 0.06 | 3.6 ± 0.07
x1 = 0.3137 | 1.46 ± 0.029 | 1.83 ± 0.037 | 2.02 ± 0.04 | 2.23 ± 0.05 | 2.66 ± 0.05
x1 = 0.4004 | 1.01 ± 0.02 | 1.31 ± 0.026 | 1.48 ± 0.03 | 1.66 ± 0.033 | 2.04 ± 0.04
x1 = 0.513 | 0.653 ± 0.013 | 0.897 ± 0.018 | 1.03 ± 0.021 | 1.18 ± 0.024 | 1.5 ± 0.03
x1 = 0.6732 | 0.371 ± 0.008 | 0.546 ± 0.011 | 0.647 ± 0.013 | 0.762 ± 0.015 | 1.01 ± 0.02
x1 = 0.7658 | 0.282 ± 0.006 | 0.427 ± 0.009 | 0.512 ± 0.01 | 0.611 ± 0.012 | 0.83 ± 0.017
x1 = 0.8473 | 0.223 ± 0.005 | 0.348 ± 0.007 | 0.424 ± 0.009 | 0.511 ± 0.01 | 0.708 ± 0.014
x1 = 0.8897 | 0.2 ± 0.004 | 0.316 ± 0.006 | 0.388 ± 0.008 | 0.47 ± 0.01 | 0.657 ± 0.013
x1 = 0.9649 | 0.167 ± 0.004 | 0.261 ± 0.005 | 0.33 ± 0.007 | 0.405 ± 0.008 | 0.576 ± 0.012
x1 = 1 | 0.151 ± 0.003 | 0.246 ± 0.005 | 0.307 ± 0.006 | 0.377 ± 0.008 | 0.542 ± 0.011

CCCCCC[n+]1ccccc1.O=S(=O)([N-]S(=O)(=O)C(F)(F)F)C(F)(F)F [1-hexylpyridinium bis(trifluromethylsulfonyl)imide] + CC1COC(=O)O1
electrical conductivity [S/m]
Conditions | 283.15 K | 293.15 K | 298.15 K | 303.15 K | 313.15 K
x1 = 0.0128 | 0.184 ± 0.004 | 0.226 ± 0.005 | 0.249 ± 0.005 | 0.275 ± 0.006 | 0.324 ± 0.007
x1 = 0.0186 | 0.243 ± 0.005 | 0.303 ± 0.006 | 0.334 ± 0.007 | 0.367 ± 0.007 | 0.435 ± 0.009
x1 = 0.0321 | 0.354 ± 0.007 | 0.445 ± 0.009 | 0.489 ± 0.01 | 0.539 ± 0.011 | 0.641 ± 0.013
x1 = 0.0545 | 0.472 ± 0.01 | 0.597 ± 0.012 | 0.661 ± 0.013 | 0.731 ± 0.015 | 0.874 ± 0.018
x1 = 0.0693 | 0.519 ± 0.011 | 0.66 ± 0.013 | 0.733 ± 0.015 | 0.814 ± 0.016 | 0.976 ± 0.02
x1 = 0.1001 | 0.567 ± 0.011 | 0.729 ± 0.015 | 0.815 ± 0.016 | 0.911 ± 0.018 | 1.1 ± 0.022
x1 = 0.1332 | 0.574 ± 0.012 | 0.749 ± 0.015 | 0.841 ± 0.017 | 0.944 ± 0.019 | 1.16 ± 0.023
x1 = 0.1806 | 0.539 ± 0.011 | 0.72 ± 0.015 | 0.817 ± 0.016 | 0.925 ± 0.019 | 1.15 ± 0.023
x1 = 0.2489 | 0.463 ± 0.009 | 0.636 ± 0.013 | 0.73 ± 0.015 | 0.838 ± 0.017 | 1.06 ± 0.021
x1 = 0.334 | 0.366 ± 0.007 | 0.522 ± 0.011 | 0.609 ± 0.012 | 0.708 ± 0.014 | 0.918 ± 0.018
x1 = 0.4547 | 0.256 ± 0.005 | 0.384 ± 0.008 | 0.458 ± 0.009 | 0.542 ± 0.011 | 0.725 ± 0.015
x1 = 0.5693 | 0.19 ± 0.004 | 0.294 ± 0.006 | 0.358 ± 0.007 | 0.43 ± 0.009 | 0.589 ± 0.012
x1 = 0.7043 | 0.136 ± 0.003 | 0.218 ± 0.004 | 0.27 ± 0.006 | 0.332 ± 0.007 | 0.47 ± 0.01
x1 = 0.8506 | 0.0986 ± 0.0021 | 0.167 ± 0.003 | 0.208 ± 0.004 | 0.258 ± 0.005 | 0.377 ± 0.008
x1 = 0.9425 | 0.0826 ± 0.0018 | 0.141 ± 0.003 | 0.179 ± 0.004 | 0.223 ± 0.005 | 0.332 ± 0.007
x1 = 1 | 0.0737 ± 0.0016 | 0.129 ± 0.003 | 0.163 ± 0.003 | 0.205 ± 0.004 | 0.306 ± 0.006
